Consider two compounds from article PMC7504088, ““Clicking” an Ionic Liquid to a Potent Antimicrobial Peptide: On the Route towards Improved Stability” (International Journal of Molecular Sciences, 2020).

Marks after values point to notes of the source that are not given here. Ends that are not written are not given here. Peptide text beside a SMILES is read from it. * marks the point of attachment. X1 = C[n+]1ccn(Cc2cn(CC(=O)*)nn2)c1

For data set [1], the system named is P. aeruginosa Pa4 (MDR clinical isolate). Format: cell-based, Pseudomonas aeruginosa. The procedure: (§1) Both the conjugate MeIm-3.1-PP4 and its parent peptide 3.1-PP4 were next screened for their antibacterial activity. Minimum inhibitory concentration (MIC) values were determined following the Clinical and Laboratory Standards Institute (CLSI) protocol, against Gram-positive (Staphylococcus aureus and Enterococcus faecalis), and Gram-negative (Pseudomonas aeruginosa, Escherichia coli and Klebsiella pneumoniae) bacteria, including both reference strains (American Type Culture Collection, ATCC), and multidrug-resistant (MDR) clinical isolates. […] Relevantly, in most cases, MIC values matched the minimum bactericidal concentration (MBC) values, highlighting a bactericidal action for both MeIm-3.1-PP4 and its parent peptide.
(§2) The MIC of the test compounds was determined according to the CLSI guidelines. Briefly, the compounds were tested in the 1–1024 µg/mL concentration range, using the microdilution method in cation-adjusted Mueller-Hinton broth (MHB II) against reference strains of P. aeruginosa ATCC 27853, E. coli ATCC 25922, S. aureus ATCC 25923, and Enterococcus faecalis ATCC 29212. MIC values were also determined against MDR clinical isolates (antibiotic resistance patterns given in Supplementary Materials, Table S1) of P. aeruginosa (PA004, Pa3, Pa4), E. coli (Ec2, EC001, EC002, EC003), K. pneumoniae (KP004, KP010), S. aureus (SA007), and Enterococcus faecalis (Ef1). Along with the MIC values, MBC values were also determined as previously reported.

Another data set has as its system P. aeruginosa ATCC 27853. Format: cell-based, Pseudomonas aeruginosa. The procedure:
as §1, §2

In data set [2] the test system is P. aeruginosa Pa3 (MDR clinical isolate). Format: cell-based, Pseudomonas aeruginosa. The procedure:
as §1, §2

In data set [3] the test system is P. aeruginosa PA004 (MDR clinical isolate). Format: cell-based, Pseudomonas aeruginosa. The procedure:
as §1, §2

Another data set concerns tyrosinase. As to the kind of experiment: in vitro. Format: in vitro ADME. The following applies: mushroom (Agaricus bisporus), isolated enzyme, pH 6.8. From the text: One of our main motivations to explore IL-peptide conjugates concerns improving the enzymatic stability of the peptide moiety, as poor pharmacokinetics is a major obstacle towards clinical translation of AMP and other bioactive peptides, even when topical applications are envisaged. For instance, in a non-healing infected wound, peptides are vulnerable to modification by endogenous (e.g., tyrosinase, elastase, metalloproteinases) and exogenous (produced by colonizing microbes) enzymes in the wound site. […] The samples were collected at different time points, for 24 h, and were analyzed by HPLC. […]
The IL-peptide conjugate and the parent peptide were both incubated at a final concentration of 10 mM in phosphate buffer (pH 6.8), with the enzyme tyrosinase (CAS:9002-10-2; T3824-250KU) at 18 U/mL, for 24 h at 37 °C. […] The supernatant was then analyzed by HPLC, using a Hitachi-Merck LaChrom Elite system with a reverse-phase C18 column (125 × […] and 5 µm pore size). […]
Results from peptide stability were expressed as the variation of the % of starting compound over time (mean ± SD). Data were analyzed in GraphPad Prism 8.0.1 Software using two-way analysis of variance (ANOVA) followed by Tukey’s multiple comparison test. […]

For data set [4], the system named is K. pneumoniae KP010 biofilms. As to the kind of experiment: Inhibition of biofilm formation, crystal violet assay. Format: cell-based, Klebsiella pneumoniae. The conditions noted are these: KP010, TSB, crystal violet absorbance at 595 nm, three independent experiments in triplicate. The procedure:
(§3) Since this type of IL-AMP conjugate is being developed for its potential interest to address infected skin lesions, a preliminary assessment of the toxicity of both the conjugate and the parent peptide towards HaCaT human epidermal keratinocytes was carried out by the 3-(4,5-dimethylthiazol-2-yl)-2,5-diphenyltetrazolium bromide (MTT) assay, as previously described by us. […] This activity was assessed in two different ways: (i) inhibition of biofilm formation, and (ii) effect on a preformed biofilm. For evaluation of the inhibition of biofilm formation, both conjugate and parent peptide were tested at MIC and sub-inhibitory concentrations (½×MIC and at ¼×MIC) following previously established procedures, and the mass of biofilm formed at these concentrations was assessed through the crystal violet assay. […] Relevantly, the absorbance measured for the control (absence of test compounds) provides confirmation that the bacterial strain used is a good biofilm producer.
The ability of the test compounds to inhibit the biofilm formation by KP010 (a MDR clinical isolate of K. pneumoniae) was assessed at the respective MIC, ^1/2×MIC and ^1/4×MIC values in tryptic soy broth (TSB) using the crystal violet assay as previously reported. […]
Figure 1 Effects of 3.1-PP4 and MeIm-3.1-PP4 on formation of K. pneumoniae KP010 biofilms (biomass quantification by crystal violet absorbance at 595 nm). […]

In data set [5] the test system is K. pneumoniae KP004 (MDR clinical isolate). Format: cell-based, Klebsiella pneumoniae. The procedure: as §1, §2
The test system of data set [6] is K. pneumoniae KP010 (MDR clinical isolate). Format: cell-based, Klebsiella pneumoniae. The procedure:
as §1, §2

In data set [7] the test system is preformed biofilms of KP010 (MDR clinical isolate of K. pneumoniae). As to the kind of experiment: Effect on preformed biofilms, OD600 of planktonic phase. Format: cell-based, Klebsiella pneumoniae. The conditions noted are these: 20×MIC, 24 h at 37 °C, untreated biofilms 0.740 ± 0.047, mean ± SD of three independent experiments in triplicate. The procedure: Biofilm proliferation was determined by measuring the optical density (OD) of the planktonic phase of the biofilms, both treated with the test compounds and the untreated control. […] This improvement, afforded by the insertion of the imidazolium motif, is in line with previous reports of enhanced antibacterial activity when combining imidazolium ILs with non-peptide antibiotics, like ampicillin, including against resistant bacterial strains.
To assess the effects of test compounds on 48 h preformed biofilms of KP010, the biofilms were first grown in TSB from a starting inoculum of 1 × 10^6 CFU/mL in 96-well microtiter plates. After 48 h of incubation at 37 °C, the planktonic cells were removed, and the wells were rinsed and filled with the test compound at a 20× MIC concentration. The optical density at 600 nm was measured at time 0 and after incubation for 24 h at 37 °C. The reduction in the biofilm proliferation was calculated in comparison to the respective non-treated biofilms. Three independent experiments were performed in triplicate.

Data set [8] relates to E. coli EC003 (MDR clinical isolate). Format: cell-based, Escherichia coli. The procedure:
as §1, §2

Another data set has as its system E. coli ATCC 25922. Format: cell-based, Escherichia coli. The procedure: as §1, §2
In data set [9] the test system is E. coli EC001 (MDR clinical isolate). Format: cell-based, Escherichia coli. The procedure:
as §1, §2

Data set [10] deals with E. coli EC002 (MDR clinical isolate). Format: cell-based, Escherichia coli. The procedure:
as §1, §2

The test system of data set [11] is E. coli Ec2 (MDR clinical isolate). Format: cell-based, Escherichia coli. The procedure: as §1, §2
The subject of data set [12] is HaCaT human epidermal keratinocytes. Format: cell-based. The conditions noted are these: 24 h. The procedure: as §3
The cytotoxicity of peptides to HaCat cells was evaluated using the standard MTT assay. Briefly, cells were seeded at a density of 4 × 10^4 cells/mL, respectively, in 96-well plates and incubated at 37 °C in a 5% CO2 atmosphere. […] Absorbance was read at 570 nm in FlexStation®3 Multi-Mode Microplate Reader (Molecular Devices, San Jose, CA, USA).

The test system of data set [13] is S. aureus SA007 (MDR clinical isolate). Format: cell-based, Staphylococcus aureus. The procedure:
as §1, §2

A further data set concerns S. aureus ATCC 25923. Format: cell-based, Staphylococcus aureus. The procedure: as §1, §2
Data set [14] has as its system Enterococcus faecalis ATCC 29212. Format: cell-based. The procedure:
as §1, §2

Data set [15] concerns Enterococcus faecalis Ef1 (MDR clinical isolate). Format: cell-based. The procedure:
as §1, §2

As a reminder, the amount remaining is the share of the starting amount still present when the sample was taken. Usually IC50 stands for the point on the concentration scale where inhibition reaches its midpoint. A low value points to greater potency in that assay. Take `CC(C)C[C@H](NC(=O)[C@H](CCCCN)NC(=O)[C@H](CCCCN)NC(=O)Cn1cc(Cn2cc[n+](C)c2)nn1)C(=O)N[C@@H](CC(C)C)C(=O)N[C@@H](CCCCN)C(=O)N[C@@H](Cc1c[nH]c2ccccc12)C(=O)N[C@@H](CC(C)C)C(=O)N[C@@H](CC(C)C)C(=O)N[C@@H](CCCCN)C(=O)N[C@@H](CC(C)C)C(=O)N[C@@H](CC(C)C)C(=O)N[C@@H](CCCCN)C(=O)N[C@H](C(=O)N[C@H](C(=O)N[C@@H](CCCCN)C(=O)N[C@@H](CO)C(N)=O)[C@@H](C)O)[C@@H](C)O` [MeIm-3.1-PP4] (X1-KKLLKWLLKLLKTTKS-NH2): the MIC is 0.8 (0.4) μg/mL in [1]; 1.5 (0.7) μg/mL against P. aeruginosa ATCC 27853; 1.5 (0.7) μg/mL in data set [2]; 3.1 (1.4) μg/mL in [3]; 49.6 (23.1) μg/mL in data set [5]; 6.2 (2.9) μg/mL in [6]. In addition, the MIC in data set [8] was 1.5 (0.7) μg/mL; against E. coli ATCC 25922, 0.8 (0.4) μg/mL; in data set [9] it was 3.1 (1.4) μg/mL; in [10], 1.5 (0.7) μg/mL; in data set [11], 1.5 (0.7) μg/mL; in data set [13] it was 12.4 (5.8) μg/mL. Besides, the MIC was 24.8 (11.6) ^a μg/mL against S. aureus ATCC 25923, 99.3 (46.3) μg/mL in data set [14] and 3.1 (1.4) μg/mL in data set [15]. For the same compound, in the data set with tyrosinase, the amount remaining at 24 h, 10 mM is roughly 84%. Besides, the “biofilm formed at MIC” value in [4] (at MIC) is “only a little amount of biofilm was formed”. Also, the “biofilm biomass formed at sub-inhibitory concentrations” value in data set [4] (at ½×MIC and ¼×MIC) was “lower than the control”. In addition, in data set [7], the “OD600 of planktonic phase of peptide-treated biofilms” value was 0.497± 0.050. The compound also returned an IC50 in data set [12] of 19.4 ± 0.2 µM.
With KKLLKWLLKLLKTTKS-NH2 [3.1-PP4], the MIC in data set [1] was 1.3 (0.7) μg/mL; against P. aeruginosa ATCC 27853, 2.3 (1.2) μg/mL; in [2], 1.3 (0.7) μg/mL; in data set [3] it was 1.3 (0.7) μg/mL; in [5] it was 2.3 (1.2) μg/mL; in [6], 2.3 (1.2) μg/mL. Moreover, the MIC was 0.6 (0.3) μg/mL in [8]; 1.3 (0.7) μg/mL against E. coli ATCC 25922; 1.3 (0.7) μg/mL in data set [9]; 1.3 (0.7) μg/mL in [10]; 1.3 (0.7) μg/mL in data set [11]; 10.3 (5.3) μg/mL in [13]. Also, the MIC is 10.3 (5.3) ^a μg/mL in the data set on S. aureus ATCC 25923, 41.3 (21.3) μg/mL in data set [14] and 2.3 (1.2) ^a μg/mL in data set [15]. Besides, half-maximal inhibition in data set [12] (IC50) required 34.2 ± 0.5 µM.
